Data as given in patent US11440903B2, “Salt form and crystal form of compound as FGFR4 inhibitor and preparation method thereof” (GUANGDONG ZHONGSHENG PHARMACEUTICAL CO., LTD, priority 2017, dated 2022).
Where two headings read alike, the source gives them in different places.

Key:
FGFR4 kinase = target: T1, FGFR4 kinase (Homo sapiens, UniProt P22455); experiment: In vitro enzyme activity test, Z'-LYTE Assay, FGFR4 enzymatic reaction; assay type: biochemical; details: 150 μM ATP, room temperature 60 min
T1 construct: purchased Life technology
T1 sequence (P22455 22-802): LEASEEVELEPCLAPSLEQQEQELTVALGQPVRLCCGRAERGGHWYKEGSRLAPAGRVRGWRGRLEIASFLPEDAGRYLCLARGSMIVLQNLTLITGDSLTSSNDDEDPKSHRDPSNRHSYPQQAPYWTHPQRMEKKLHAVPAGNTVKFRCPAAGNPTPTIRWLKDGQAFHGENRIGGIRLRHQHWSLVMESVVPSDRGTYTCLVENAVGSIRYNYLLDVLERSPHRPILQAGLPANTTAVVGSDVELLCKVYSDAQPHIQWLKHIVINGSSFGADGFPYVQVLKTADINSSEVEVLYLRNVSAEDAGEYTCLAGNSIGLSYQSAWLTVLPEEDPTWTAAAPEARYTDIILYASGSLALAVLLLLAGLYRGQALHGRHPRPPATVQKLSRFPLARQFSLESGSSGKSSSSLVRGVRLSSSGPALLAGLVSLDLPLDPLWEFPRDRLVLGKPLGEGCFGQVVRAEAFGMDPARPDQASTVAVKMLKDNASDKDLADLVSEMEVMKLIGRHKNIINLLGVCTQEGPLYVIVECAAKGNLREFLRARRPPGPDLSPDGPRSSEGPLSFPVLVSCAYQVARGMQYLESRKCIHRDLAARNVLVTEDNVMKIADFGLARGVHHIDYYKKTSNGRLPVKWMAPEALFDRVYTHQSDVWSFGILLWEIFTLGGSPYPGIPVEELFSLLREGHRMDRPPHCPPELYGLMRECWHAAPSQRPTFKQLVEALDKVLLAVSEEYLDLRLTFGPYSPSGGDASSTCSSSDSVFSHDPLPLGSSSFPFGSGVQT
Procedure: (§1) The enzyme activity was detected by Z′-LYTE® Assay with IC50 value of the compound used as an index for evaluating the inhibitory effect of the compound on FGFR4 kinases. The activity test was completed in Life technology.
(§2) The test compound was subjected to 3× gradient dilution, and the final concentrations included 10 concentrations from 10 μM to 0.5 nM, with two duplicates per concentration; the content of DMSO used in the detection reaction was 1%.
[…] The detection plate was Bar-coded Corning, low volume NBS, black 384-well plate, the reaction was implemented at room temperature for 60 min, and the reaction system was 10 μL.
(§3) 5 μL Development reagent B (1:64) was added into the kinase reaction solution to stop the reaction, and the reaction solution was incubated at 23° C. for 60 min, the plate was read with Envision instrument.
(§4) The data were converted to the phosphorylation rate and the inhibitory rate, and was subjected to curve fitting with Model 205 in XLFIT (iDBS) to give the IC50 data of the compound. If the bottom of the curve was not in the range of −20% to 20%, it was set as 0%; and if the top of the curve was not in the range of 70% to 130%, it was set as 100%.

FGFR1 protein kinase = target: T2, FGFR1 protein kinase (Homo sapiens, UniProt P11362); experiment: In vitro enzyme activity test, Z'-LYTE Assay, FGFR1 enzymatic reaction; assay type: biochemical; details: 25 uM ATP, room temperature 60 min
T2 construct: purchased Life technology
T2 sequence (P11362 22-822): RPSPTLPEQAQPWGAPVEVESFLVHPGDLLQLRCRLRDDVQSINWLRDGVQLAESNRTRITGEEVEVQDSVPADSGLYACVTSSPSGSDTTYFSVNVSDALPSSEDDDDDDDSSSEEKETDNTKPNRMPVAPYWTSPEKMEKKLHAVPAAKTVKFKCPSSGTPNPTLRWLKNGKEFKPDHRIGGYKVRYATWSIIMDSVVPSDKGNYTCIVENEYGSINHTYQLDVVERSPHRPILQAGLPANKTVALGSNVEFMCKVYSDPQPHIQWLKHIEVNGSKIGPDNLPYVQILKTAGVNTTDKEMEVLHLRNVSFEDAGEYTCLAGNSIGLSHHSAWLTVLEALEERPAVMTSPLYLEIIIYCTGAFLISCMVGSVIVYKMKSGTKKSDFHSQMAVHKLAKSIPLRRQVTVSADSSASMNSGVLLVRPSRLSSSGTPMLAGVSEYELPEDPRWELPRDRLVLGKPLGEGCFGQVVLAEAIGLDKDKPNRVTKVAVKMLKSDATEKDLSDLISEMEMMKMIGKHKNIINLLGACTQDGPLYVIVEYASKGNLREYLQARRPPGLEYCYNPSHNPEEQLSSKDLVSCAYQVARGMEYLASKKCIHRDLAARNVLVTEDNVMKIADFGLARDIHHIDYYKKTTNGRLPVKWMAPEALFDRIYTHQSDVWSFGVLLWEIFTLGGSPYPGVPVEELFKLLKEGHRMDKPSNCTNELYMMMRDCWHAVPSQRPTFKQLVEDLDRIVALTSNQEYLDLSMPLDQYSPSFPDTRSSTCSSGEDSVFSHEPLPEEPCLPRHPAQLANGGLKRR
Procedure: as §1, §2
1 nM FGFR1 protein kinase, 2 μM Tyr4 peptide, 25 uM ATP, 50 mM HEPES (pH 7.5), 10 mM MgCl2, 1 mM EGTA, 0.01% BRIJ-35, 2 mM MnCl2, and 1 mM DTT. The detection plate was Black Proxiplate 384-Plus plate (PerkinElmer), the reaction was implemented at room temperature for 60 min, and the reaction system was 10 μL.
as §3, §4

[1] = Stability of the crystal form on stirring as suspension in solvent (40° C., 2 days); assay type: physicochemical; details: stirring in acetone at 40° C.
Procedure: 30 mg of the compound represented by formula (I) was weighed and added into a glass flask, 400 μL acetonitrile-water (1:1) was added to form a suspension. A sample of the suspension was placed on a magnetic stirrer (40° C.) for a dark stirring experiment. The sample of the suspension was centrifuged after stirring at 40° C. for 2 days, and then the residual sample was dried in a vacuum drying oven (30° C.) overnight to give a crystal form A of the compound represented by formula (I). The XRPD pattern of the crystal form A of the compound represented by formula (I) is shown in FIG. 1, the DSC pattern is shown in FIG. 2, and the TGA pattern is shown in FIG. 3.
30 mg of the compound represented by formula (I) was weighed and added into a glass flask, and 400 μL ethyl acetate was added to form a suspension. A sample of the suspension was placed on a magnetic stirrer (40° C.) for dark stirring experiment. The sample of the suspension was centrifuged after stirring at 40° C. for 2 days, and then the residual sample was dried in a vacuum drying oven (30° C.) overnight. The crystal form was detected by XRPD to give a crystal form A of the compound represented by formula (I).
30 mg of the compound represented by formula (I) was weighed and added into a glass flask, and 400 μL methanol was added to form a suspension. A sample of the suspension was placed on a magnetic stirrer (40° C.) for dark stirring experiment. The sample of the suspension was centrifuged after stirring at 40° C. for 2 days, and then the residual sample was dried in a vacuum drying oven (30° C.) overnight to give a crystal form B of the compound represented by formula (I). The XRPD pattern of the crystal form B of the compound represented by formula (I) is shown in FIG. 4, the DSC pattern is shown in FIG. 5, and the TGA pattern is shown in FIG. 6.
50 mg of the compound represented by formula (I) was weighed and added into a 1.5 mL liquid vial, and 200 μL methanol was added thereto, the obtained mixture was homogeneously mixed under ultrasound. The dissolved sample was quickly centrifuged, and the supernatant was placed in a centrifuge tube, the mouth of the tube was packed with a pierced aluminum foil, and then the tube was placed in a fume cupboard for volatilization; the sample of the suspension was placed on a magnetic stirring heater (40° C.) for stirring (in dark), and quickly centrifuged after 2 days. The resultant solid was collected and dried at 30° C. in a vacuum drying oven overnight to give the crystal form C of the compound represented by formula (I). The XRPD pattern of the crystal form C of the compound represented by formula (I) is shown in FIG. 7, the DSC pattern is shown in FIG. 8, and the TGA pattern is shown in FIG. 9.
50 mg of the compound represented by formula (I) was weighed and added into a 1.5 mL liquid vial, and 200 μL ethanol was added thereto, and the obtained mixture was homogeneously mixed under ultrasound. The dissolved sample was quickly centrifuged, the supernatant was placed into a centrifuge tube, and the mouth of the tube was packed with a pierced aluminum foil, and placed in a fume cupboard for volatilization; the sample of the suspension was placed on a magnetic stirring heater (40° C.) for stirring (in dark), and quickly centrifuged after 2 days. The solid obtained as above was collected and dried at 30° C. in a vacuum drying oven overnight to give a crystal form D of the compound represented by formula (I). The XRPD pattern of the crystal form D of the compound represented by formula (I) is shown in FIG. 10, the DSC pattern is shown in FIG. 11, and the TGA pattern is shown in FIG. 12.
35 mg of the compound represented by formula (II) was weighed and added into a 1.5 mL liquid vial, and 400 μL methanol was added thereto, and the obtained mixture was homogeneously mixed under ultrasound. […]

[2] = Solubility test in biological media (FaSSIF, FeSSIF, SGF) and water, 37° C.; assay type: physicochemical; details: for Status (24 h) / solubility at 24 h / pH 24 hours: 37° C.; for Status (24 h): about 4 mg in 2 mL; for solubility at 24 h: salt forms converted to salt concentrations, read-out: Solubility (mg/mL) 24 hours; for pH 24 hours: supernatant; for pH 0 hour: initial
Procedure: Step 1: Preparation of Control Solutions (0.2 mg/mL, calculated by free base)
2 mg the crystal form B of the compound represented by formula (I) (or 2.4 mg the crystal form E of the compound represented by formula (II)) as a control was precisely weighed and placed into a 40 mL glass vial, and a diluent (10 mL) was precisely added. The reaction solution was subjected to ultrasonic treatment for 20 min to sufficiently dissolve, then cooled to room temperature and shaked well. Two control solutions (STD #1, STD #2) were formulated in accordance with this method.
Step 2: Preparation of Linear Solutions
The control solution STD #1 of the crystal form B of the compound represented by formula (I) was 1×, 10×, 100×, 1000× and 2000× (free base LOQ) diluted, and designated as the linear solutions L1, L2, L3, L4 and L5; the control solution STD #1 of the crystal form E of the compound represented by formula (II) was 1×, 10×, 100× and 1000× (methanesulfonate LOQ) diluted, and designated as the linear solutions L1, L2, L3, L4.
Step 3: Solubility Test of the crystal form B of the compound represented by formula (I), the crystal form G of the compound represented by formula (III) and the crystal form E of the compound represented by formula (II) in biological media and water
4 samples (about 4 mg) of each of the crystal form B of the compound represented by formula (I), the crystal form E of the compound represented by formula (II), and the crystal form G of the compound represented by formula (III) were added into 12 glass vials (4 mL), respectively, and then 2 mL different biological media (FaSSIF, FeSSIF, SGF) and water were added into each compound respectively, then mixed homogeneously to form a suspension. The suspension was detected for its initial pH value. A magnet was added into the suspension, and placed on a magnetic stirring heater for stirring (at a temperature of 37° C., in dark). After stirring for 24 h, a sample was taken. The taken sample was quickly centrifuged, and the residual solid was detected by XRPD. The supernatant was detected for its pH value and diluted with a diluent into appropriate multiple, then measured with HPLC for its concentration.
FaSSIF: 1. 0.042 g sodium hydroxide, 0.3438 g sodium dihydrogen phosphate and 0.6186 g sodium chloride were weighed, added into 90 mL purified water, and homogeneously mixed, then, the mixture was adjusted with 1 N hydrochloric acid or 1 N sodium hydroxide to pH=6.5, and diluted into a constant volume of 100 mL with purified water; 2. 50 mL of the buffer described above was taken, and 0.224 g commercially available powder (Biorelevant.com) of FaSSIF/FeSSIF/FaSSGF was added thereto, the mixture was stirred to dissolve, and diluted with purified water to a constant volume of 100 mL.
FeSSIF: 1. 0.404 g sodium hydroxide, 0.865 g glacial acetic acid, and 1.1874 g sodium chloride were weighed, added into 90 mL purified water, and homogeneously mixed, then, the mixture was adjusted with 1 N hydrochloric acid or 1 N sodium hydroxide to pH=5.0, and diluted with purified water to a constant volume of 100 mL, 2. 50 mL of the buffer described above was taken, and 1.12 g commercially available powder (Biorelevant.com) of FaSSIF/FeSSIF/FaSSGF was added thereto, the mixture was stirred to dissolve, and diluted with purified water to a constant volume of 100 mL.
FaSSGF (SGF): 1. 0.2 g sodium chloride was weighed, added into 90 mL purified water, and mixed homogeneously, the mixture was adjusted with 1 N hydrochloric acid to pH=1.8, and diluted with purified water to a constant volume of 100 mL, and stood at room temperature.

| Structure (SMILES) | IC50 (FGFR4 kinase) | IC50 (FGFR1 protein kinase) | stability in the acetone solution [1] | Status (24 h) ([2]; FaSSIF) | solubility in three types of biological media, conclusion in words ([2]; FaSSIF, FeSSIF, SGF) | Status (24 h) ([2]; FeSSIF) | solubility at 24 h ([2]; SGF (FaSSGF), pH 1.8, simulated gastric fluid, thermodynamic from solid, SGF) | Status (24 h) ([2]; SGF) | Status (24 h) ([2]; Water) | solubility at 24 h ([2]; pH 5, thermodynamic from solid, FeSSIF) | solubility at 24 h ([2]; pH 6.5, thermodynamic from solid, FaSSIF) | pH 24 hours ([2]; FaSSIF) | pH 24 hours ([2]; FeSSIF) | pH 24 hours ([2]; SGF) | pH 24 hours ([2]; Water) | pH 0 hour ([2]; suspension in FaSSIF) | pH 0 hour ([2]; suspension in FeSSIF) | pH 0 hour ([2]; suspension in SGF) | pH 0 hour ([2]; suspension in Water) | solubility at 24 h ([2]; thermodynamic from solid, Water) |
| --- | --- | --- | --- | --- | --- | --- | --- | --- | --- | --- | --- | --- | --- | --- | --- | --- | --- | --- | --- | --- |
| C=CC(=O)N[C@H]1COC[C@H]1Nc1ncc(/C=C(\F)c2c(Cl)c(OC)cc(OC)c2Cl)cn1 [Compound represented by formula (I)] | 17 nM | 1460 nM |  |  |  |  |  |  |  |  |  |  |  |  |  |  |  |  |  |  |
| C=CC(=O)N[C@H]1COC[C@H]1Nc1ncc(/C=C(\F)c2c(Cl)c(OC)cc(OC)c2Cl)cn1.O=S(=O)(O)O |  |  | substantially high stability | Suspension | good solubility | Suspension | 0.045 mg/mL | Suspension | Suspension | 0.668 mg/mL | 0.079 mg/mL | 6.38 | 4.99 | 2.14 | 2.47 | 6.54 | 4.87 | 2.03 | 2.34 | 0.028 mg/mL |
